Experimental data taken from patent publication US20220257621A1, “CANCER CELL PROLIFERATION SUPPRESSION AGENT AND COMPOSITION FOR SUPPRESSING PROLIFERATION OF CANCER CELLS” (SHOWA DENKO K.K., priority 2019, published 2022).

Experiments:
[1] = test system: normal human epidermal keratinocytes (NHEK); assay: Effect (2) of suppressing ROS production, inositol derivative and Na tocopherol phosphate; format: cell-based; conditions: Na tocopherol phosphate 10 μM and/or inositol derivative 0.001% by mass 24 h, then atmospheric dust 500 μg/mL 48 h, control without dust = 1, dust + 0.05% ethanol = 2.41
Method: The effect of the inositol derivative and Na tocopherol phosphate on suppressing ROS production in normal human epidermal keratinocytes (NHEK, manufactured by KURABO INDUSTRIES LTD.) was measured under the following conditions. As the following Na tocopherol phosphate, TPNa (registered trademark) (manufactured by Showa Denko K. K.), which is sodium d1-α-tocopheryl phosphate, was used.
The NHEK cells were seeded in a HuMedia KG2 medium manufactured by KURABO INDUSTRIES LTD. at the seeding density of 10000 cells/cm^2, and cultured for 24 hours under the conditions of 37° C. and 5% CO2. Next, Na tocopherol phosphate alone (final concentration of 10 μM in the culture medium), the inositol derivative alone (final concentration of 0.001% by mass in the culture medium), or a combination of Na tocopherol phosphate (final concentration of 10 μM in the culture medium) and the inositol derivative (final concentration of 0.001% by mass in the culture medium) was added to the culture medium. […] Thereafter, the ROS production amount was measured using a ROS assay kit (manufactured by OZ BIOSCIENCES). […] After washing the cells with PBS again, 100 μL of PBS was added, and the fluorescence intensity at an excitation wavelength of 485 nm/an absorption wavelength of 535 nm was measured with a microplate reader i-Control (manufactured by Tecan Group Ltd.). […]

[2] = test system: cell line derived from Lewis lung carcinoma (LLC); assay: Effect (2) of suppressing proliferation of cancer cells, inositol derivative and Na tocopherol phosphate (WST-8); format: cell-based; conditions: Na tocopherol phosphate 10 μM and/or inositol derivative 0.001% by mass 24 h, then atmospheric dust 500 μg/mL 48 h, control without dust = 1, dust + 0.05% ethanol = 1.69
Method: The effect of the inositol derivative and Na tocopherol phosphate on suppressing the proliferation of cancer cells in a cell line derived from Lewis lung carcinoma (LLC, JCRB Cell Bank) was measured under the following conditions. As the following Na tocopherol phosphate, TPNa (registered trademark) (manufactured by Showa Denko K. K.), which is sodium d1-α-tocopheryl phosphate, was used.
The LLC cells were seeded at the seeding density of 50000 cells/cm^2 in a culture medium in which a Ham F10 medium and an L15 medium (both manufactured by Sigma-Aldrich) were mixed at the ratio of 3:7 (volume ratio), and cultured for 24 hours under the conditions of 37° C. and 5% CO2. Next, Na tocopherol phosphate alone (final concentration of 10 μM in the culture medium), the inositol derivative alone (final concentration of 0.001% by mass in the culture medium), or a combination of Na tocopherol phosphate (final concentration of 10 μM in the culture medium) and the inositol derivative (final concentration of 0.001% by mass in the culture medium) was added to the culture medium. […] Thereafter, the culture medium was replaced with a medium containing 10% (V/V) of WST-8 of Nacalai Tesque Inc., and after further culturing for 3 hours, the absorbance at the wavelength of 450 nm was measured with a microplate reader i-Control (manufactured by Tecan Group Ltd.). […]

In the case of Cc1c(C)c2c(c(C)c1OP(=O)([O-])[O-])CCC(C)(CCCC(C)CCCC(C)CCCC(C)C)O2.[Na+].[Na+] (stereo not drawn) [Na tocopherol phosphate, sodium d1-α-tocopheryl phosphate], the “Relative ROS production amount” value [1] was 1.53 and the “Relative cell proliferation amount” value [2] was 1.33.
